Reference: patent US5628328A, “Method for measuring muscle mass” (priority 1995, dated 1997)

Legend:
[1] = design: species or system human; settings: in vivo
Description: Normal volunteers with no evidence or history of diabetes mellitus or of cardiac, liver, renal or pulmonary diseases were studied. The subjects consisted of 3 males and 1 female, ranging in age from 31 to 37 years, in body weight from 47 to 92 kg, and in body mass index (BMI) from 19.2 to 25.5. The purpose and possible risks of the study were explained to all subjects, and their voluntary written consent was obtained. The study protocol was approved by the Committee for the Protection of Human Subjects of the Institutional Review Board at Vanderbilt University School of Medicine. All studies were performed at the Clinical Research Center (CRC). Subjects were placed on balanced weight-maintenance diets for at least one week before the start of the study. Meat was excluded from the subjects' diets for three days before the study and during the study.
All studies were performed after a 10-12 hour overnight fast. On the morning of the experiment (6.30 to 7.00 hours), an 18-gauge Angiocatheter™ (Benton Dickinson, Sandy, Utah) was placed in a superficial hand vein of the nondominant arm for blood sampling. The hand was heated to 55° C. to ensure complete arterialization (Abumrad, N.N. et al., "Use of a heated superficial hand vein as an alternative site for the measurement of amino acid concentrations and for the study of glucose and alanine kinetics in man," Metabolism (1981) 30:936-940). In addition, a 16-gauge angiocatheter was inserted into the contralateral forearm vein for the infusion of L-3-[methyl-^2 H3 ]-histidine (MSD Isotopes, Montreal, Canada). Finally, another catheter was threaded retrograde into the brachial vein of the dominant arm and used for sampling of the forearm tissue.
Each study was four days in duration. Starting at t=0 (8.00 hours), subjects were administered a bolus infusion of L-3-[methyl^2 H3 ]-histidine (D3 -3-methylhistidine) at 0.13 μmol/kg into the forearm vein of the dominant arm. The infusate was passed through a Millex-GS sterilizing filter (0.22 μm; Millipore Products Divisions, Bedford, Mass.) before the infusion. Blood samples were obtained from the superficial hand vein and from the deep forearm vein at 0, 1, 2, 5, 10, 15, 30, 45, 90, 150, 210, 270, 330, and 720 min. postinjection. During this time, the subjects were required to stay at the Clinical Research Center, although they were allowed to ambulate freely within their rooms. Free access to food and drink was allowed after the 330-min sample. After 720 min, the catheters were removed and the patients were allowed to go home. For the following three days, the subjects returned to the CRC each morning before eating for further blood sampling by percutaneous venous puncture at 1,440, 2,880, and 4,320 min postinjection. Urine was collected over 24 hour periods the day before and for three days after tracer infusion.
Blood was collected in heparinized syringes, transferred to tubes containing Na2 EDTA (15 mg/tube), and centrifuged. The plasma obtained was immediately placed on ice. An aliquot of the plasma was processed for determination of 3-methylhistidine concentration as well as the L-3-[methyl-^2 H3 ]-histidine:3-methylhistidine isotope enrichment. The remainder of the plasma was frozen at -70° C. The urine obtained was processed for the determination of creatinine both as a measure of the completeness of the collection (Pencharz, P. B. et al., "The effect of an energy-restricted diet on the protein metabolism of obese adolescents: nitrogen-balance and whole-body nitrogen turnover," Clin. Sci. (1980) 59:13-18), and for the estimation of lean body mass (Blackburn, G. L. et al., "Nutritional and metabolic assessment of hospitalized patients," J. Parenter. Enteral. Nutr. (1977) 1:11-22). […]

[2] = in vivo
[3] = in vivo; remark: listed apart in the source
Description: The diversity of models between cattle, dogs and humans and sheep and pigs reflects differences in known physiology. In each species the tracer is injected into compartment 1 which, based on size (volume and mass), is similar to plasma and extracellular water space. Compartment 1 was the sampling compartment and the compartment from which the steady state calculations were initiated. All models for each species can be resolved by sampling only plasma, except in sheep--the model in FIG. 4 required the sampling of plasma and urine. However, the sheep model can be resolved from plasma kinetics of 3-methylhistidine if the rate of exit from compartment 1 is fixed. From the steady state calculations the de novo production of 3-methylhistidine was obtained into compartment 3 for humans, cattle and dogs and into compartment 2 for sheep and pigs. The de novo production of 3-methylhistidine could be placed as an entry into compartment 2 and an identical rate calculated. The compartment identity of compartment 2 and 3 is intracellular pools of 3-methylhistidine. The metabolic form of 3-methylhistidine in these compartments may not be identical nor is the identity of compartment 2 or 3 for one species the same identity for another species (i.e., cattle vs. sheep). The models also depict differences in the route by which 3-methylhistidine exits the system. […]

[4] = Safety and excretion of administered D3-3-methylhistidine; settings: small quantities administered
[5] = adult human; cited from earlier work
[6] = rat; cited from earlier work

Compound | Decay of D3-3-methylhistidine:3-methylhistidine ratio in plasma [1] | Urinary excretion [2] | Exponential decay curve of tracer [3] | Toxicity [4] | Share of daily 3-methylhistidine excreted [5] | Form excreted in urine [6]
[2H]C([2H])([2H])n1cnc(C[C@H](N)C(=O)O)c1 [D3-3-methylhistidine, 3-[^2 H3-methyl]-methylhistidine] | rapid decrease in the D3- 3-methylhistidine:3-methylhistidine ratio during the first 5 hours followed by a slow linear (semilog plot) decay over the three days of blood sampling | quantitatively excreted in urine | rapid decay over the first 2-3 hours, followed by a slower decay through 12 hours, and a steady state decay over the remainder of the study | non-toxic |  | 
N-acetyl-3-methylhistidine |  |  |  |  | less than 5% | major form excreted in the rat
